Key:
[1] = Physical characterisation of isolated EPA: solubility; type: physicochemical; details: solvent chloroform; isolated EPA free fatty acid powder
Experimental: Take 1 litre of fish oil. Maintain temperature to 40-45° C. To it add 1-2% methanolic or ethanolic or propanolic or butanolic sodium or potassium hydroxide 1 litre and stir for ½ an hour. keep aside, it separates into 2 layers, discard an upper layer which contains lower fatty acids. It further separates in to two layers, discard the upper layer. Then in lower layer add 750 ml of acetone or ethyl/ methyl ketone and stir for ½ an hour and keep aside for 20 mins. It precipitates and form two phase (solid and liquid) filter it and discard the solid layer. In the lower liquid layer, after ½ an hour, settle solid compound. On filtration, the solid compound separates. Wash the solid compound 2-3 times with 400 ml of acetone and Evaporate and recover the solvent with temperature not exceeding 40 degree C. This leads to drying of the precipitated EPA at room temperature to form the crystalline mass. The same is passed through the sieve to obtain a dry, directly compressible, free flowing powder of free fatty acid EPA thereof.
Cool fish oil to 12 degree C. to solidify all fatty acids in waxy form which separates from the fish oil. […] It is washed 2-3 times with equal quantity of acetone and Evaporate and recover the solvent with temperature not exceeding 40 degree C. […]

[2] = Stability of EPA powder at room temperature; type: physicochemical; details: powder form, no antioxidants added

Solubility [1]: freely soluble in chloroform | Stability [2]: stable at room temperature
SMILES: CC/C=C\C/C=C\C/C=C\C/C=C\C/C=C\CCCC(=O)O [EPA, Eicosapentaenoic acid]
